From patent publication US8772285B2, “Benzothiazoles having histamine H3 receptor activity” (High Point Pharmaceuticals, LLC, priority 2006, dated 2014)
Structures can show the parent of a compound that is named as a salt.

How the values were obtained:
[1] = biological target: human H3 receptor (Homo sapiens (Human), UniProt Q9Y5N1); experiment: Functional assay II, [35S]GTPγS assay; type: biochemical; settings: membranes from CHO cells stably expressing the human H3 receptor
Experimental: The ability of the compounds to bind and interact with the human H3 receptor as agonists, inverse agonists and/or antagonists, is determined by a functional assay, named [^35S]GTPγS assay. The assay measures the activation of G proteins by catalyzing the exchange of guanosine 5′-diphosphate (GDP) by guanosine 5′-triphosphate (GTP) at the -subunit. The GTP-bounded G proteins dissociate into two subunits, GGTP and Gβγ, which in turn regulate intracellular enzymes and ion channels. GTP is rapidly hydrolysed by the G-sub-unit (GTPases) and the G protein is deactivated and ready for a new GTP exchange cycle. […] GTPγS, a non-hydrolysed analogue of GTP, is determined. This process can be monitored in vitro by incubating cell membranes containing the G protein coupled receptor H3 with GDP and [^35S] […] This procedure is repeated twice except for the last homogenization step, the protein concentration is determined, and membranes are diluted to a protein concentration of 2 mg/ml, aliquoted and kept at −80° C. until use.
In order to study the presence and the potency of an inverse agonist/antagonist, the H3-receptor agonist ligand R-α-methyl histamine (RAMHA) is added. The ability of the test compound to counteract the effect of RAMHA is measured. […] The plates are centrifuged at 1500 rpm for 10 min and the radioactivity is measured using a Top-counter. […]

[2] = system: Sprague-Dawley (SD) male rats; experiment: Open cage schedule-fed rat model; type: in vivo; settings: dose 15 mg/kg p.o.
Experimental: The ability of the present compounds to reduce weight is determined using the in vivo open cage Schedule-fed rat model.
Sprague-Dawley (SD) male rats of an age of about 1½ to 2 months and a weight of about 200-250 g are purchased from Møllegård Breeding and Research Centre A/S (Denmark). On arrival they are allowed some days of acclimatisation before being placed in individual open plastic cages. They are habituated to the presence of food (Altromin pelleted rat chow) in their home cage for only 7 hours each day (from 07.30 to 14.30, seven days a week). Water is present ad libitum. Once the consumption of food has stabilised after 7 to 9 days, the animals are ready for use.
Each animal is used only once to avoid carry-over effects between treatments. During the test sessions, the test compound is administered intraperitoneally or orally 30 min before the start of the sessions. One group of animals is administered the test compound at different doses, and a control group of animals receives vehicle. Food and water intake are monitored at 1, 2 and 3 hours post administration.
Any side effects (manifested as barrel-rolling, bushy fur etc.) may rapidly be detected, since the animals are kept in transparent plastic cages to enable continuous monitoring.

Sequence of human H3 receptor (Q9Y5N1 whole entry): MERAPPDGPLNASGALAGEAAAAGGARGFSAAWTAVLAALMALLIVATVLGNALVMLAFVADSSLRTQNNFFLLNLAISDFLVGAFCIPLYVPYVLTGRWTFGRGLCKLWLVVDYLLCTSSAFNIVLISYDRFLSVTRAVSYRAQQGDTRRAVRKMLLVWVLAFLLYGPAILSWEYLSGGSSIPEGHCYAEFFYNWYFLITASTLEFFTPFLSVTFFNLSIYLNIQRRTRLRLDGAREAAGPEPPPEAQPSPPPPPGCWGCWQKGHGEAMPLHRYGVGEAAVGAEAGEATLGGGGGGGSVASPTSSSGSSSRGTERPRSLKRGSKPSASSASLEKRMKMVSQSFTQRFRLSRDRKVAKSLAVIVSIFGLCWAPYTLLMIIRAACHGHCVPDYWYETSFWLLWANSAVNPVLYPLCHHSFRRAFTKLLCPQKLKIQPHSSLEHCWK

| Ki [1] | SMILES | Open cage schedule-fed rat model, food intake at 3 h [2] |
| --- | --- | --- |
| 0.9 nM | c1cc2nc(N3CCN(C4CC4)CC3)sc2cc1CNC1CC1 [Example 27, Cyclopropyl-[2-(4-cyclopropylpiperazin-1-yl)benzothiazol-6-ylmethyl]-amine, trifluoroacetate] | 82.9 % of vehicle |
| 1.8 nM | O=C(O)C(F)(F)F.c1cc2nc(N3CCN(C4CC4)CC3)sc2cc1CN1CCCC1 [Example 17, 2-(4-Cyclopropylpiperazin-1-yl)-6-(pyrrolidin-1-ylmethyl)benzothiazole, trifluoroacetate] | 81.2 % of vehicle |
